Consider 3 molecules from patent publication US20240392231A1, “BACTERIOLYSIS METHOD AND BACTERIA DETECTION METHOD” (ASAHI KASEI KABUSHIKI KAISHA, priority 2021, published 2024).

Test [1] relates to Staphylococcus aureus (SA). Nature of the test: Bacteriolysis and immunochromatographic detection, test line intensity by image processing. The test is classed as cell-based. How it is done: (§1) Escherichia coli (EC) was selected as the Gram-negative bacteria and Staphylococcus aureus (SA) as the Gram-positive bacteria, and each was dissolved in saline to prepare a solution with a concentration of 1e5 cfu/ml. Normal saline was also used as the bacteria-free solution.
(§2) 0.1M Tris-HCl (pH 7.4) buffer was mixed with 2.0 μg/ml of lysostaphin enzyme (the final concentration after mixing with the bacterial solution for evaluation (sample) was 1.0 μg/ml) and 0.2 mass % Tween20 for immunochromatographic development and used as a mother solution to prepare various reaction solutions with DDAO concentrations of from 0 to 0.5 mass % (the final concentrations after mixing with the bacterial solution for evaluation (sample) were 0 to 0.25 mass %) or benzalkonium chloride concentrations of 0 to 0.5 mass % (the final concentrations after mixing with the bacterial solution for evaluation (sample) were 0 to 0.25 mass %).
(§3) Bacterial lysis and detection performance by antigen-antibody reaction were evaluated by inserting the immunochromatographic test strip prepared in Example 1 into a 1:1 mixture of the bacterial solution for evaluation and the various reaction solutions described above. The evaluation was made by photographing the test line area with a camera and quantifying the degree of redness of the test line area due to gold colloids via image processing (from the RGB values, the G value was used as indicating the red absorption. This is indicated as “test line intensity” in the graphs below). A higher test line intensity indicates a higher degree of redness, and a test line intensity of 10 or higher is considered visually positive.
To see the effect of lysostaphin, Staphylococcus aureus (SA) was dissolved in saline to prepare a solution with a concentration of 1e6 cfu/ml. Normal saline was also used as the bacteria-free solution.
0.1M Tris-HCl (pH 7.4) buffer was mixed with DDAO at a concentration 0.15 mass % (the final concentration after mixing with the bacterial solution for evaluation (sample) was 0.075 mass %) or benzalkonium chloride at a concentration of 0.05 mass % (the final concentration after mixing with the bacterial solution for evaluation (sample) was 0.025 mass %) as well as 0.2 mass % of Tween20 for immunochromatographic development and used as a mother solution to prepare various reaction solutions with lysostaphin enzyme concentrations of 0 to 50 μg/ml (the final concentration after mixing with the bacterial solution for evaluation (sample) were 0 to 25 μg/ml).
Bacterial lysis and detection performance by antigen-antibody reaction (test line intensity) were evaluated by inserting the immunochromatographic test strip prepared in Example 1 into a 1:1 mixture of the bacterial solution for evaluation and the various reaction solutions described above.

Another test has as its system Escherichia coli (EC). The description is as above. The test is classed as cell-based. The procedure: as §1, §2, §3

`CCCCCCCCCCCC[N+](C)(C)[O-]` [DDAO, N,N-dimethyldodecylamine N-oxide]: the “test line intensity SA” value is on record as “increased” in test [1] (final DDAO 0 to 0.05 mass %, lysostaphin 1.0 μg/ml, 1e5 cfu/ml, FIG. 2); “decreased” in test [1] (final DDAO above 0.1 mass %, lysostaphin 1.0 μg/ml, 1e5 cfu/ml, FIG. 2); “remained almost constant” in test [1] (final DDAO between 0.05 and 0.1 mass %, lysostaphin 1.0 μg/ml, 1e5 cfu/ml, FIG. 2). For the same molecule, in the test with Escherichia coli (EC) (higher final concentrations of DDAO vs absence of DDAO, lysostaphin 1.0 μg/ml, 1e5 cfu/ml, FIG. 2), the “test line intensity EC” value is “higher test line intensities”.
Take benzalkonium chloride: the “test line intensity SA” value in test [1] (final benzalkonium chloride 0 to 0.065 mass %, lysostaphin 1.0 μg/ml, 1e5 cfu/ml, FIG. 3) is given as “increased”; in test [1] (final benzalkonium chloride exceeding 0.07 mass %, FIG. 3), “decreased”. For the same molecule, the “test line intensity EC” value with Escherichia coli (EC) (final benzalkonium chloride exceeding 0.075 mass %, FIG. 3) is given as “decrease in test line intensity”. The “bacteriolysis efficiency and test line intensity EC” value with Escherichia coli (EC) (final benzalkonium chloride up to 0.075 mass % vs none, lysostaphin 1.0 μg/ml, 1e5 cfu/ml, FIG. 3) was “higher bacteriolysis efficiency and test line intensity”.
Regarding “lysostaphin: bacteriolysis enzyme, protein hydrolysis enzyme”, the “test line intensity SA” value is “high test line intensity” in test [1] (lysostaphin final concentration exceeding 0.01 μg/ml, DDAO 0.075 mass %, 1e6 cfu/ml, FIG. 4) and “high test line intensity” in test [1] (lysostaphin final concentration exceeding 0.01 μg/ml, benzalkonium chloride 0.025 mass %, 1e6 cfu/ml, FIG. 5).
